Patent US8778923B2, “GLP-1 receptor modulators” (Receptos, Inc., priority 2011, dated 2014)

Target: T1, GLP-1R (Homo sapiens, UniProt P43220)
T1 construct: host or cells: CRE-bla CHO-K1
Assay: EC20 GLP-1(9-36) PAM cAMP assay: dose response of compound in the presence of fixed concentration of GLP-1(9-36)
Assay type: cell-based
Conditions: GLP-1R CRE-bla CHO-K1 cells, compound dose response in presence of fixed concentration of GLP-1(9-36)
Method in brief: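 GLP-1R CRE-bla CHO-K1 cells in HBSS/10 mM Hepes/0.1% BSA pH 7.4 with IBMX got a 12-point compound dose response plus fixed EC20 GLP-1(9-36), 30 min at 37 °C. cAMP measured by HitHunter luminescence against a standard curve; EC50 and Emax by non-linear regression.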

T1 sequence (P43220 24-463): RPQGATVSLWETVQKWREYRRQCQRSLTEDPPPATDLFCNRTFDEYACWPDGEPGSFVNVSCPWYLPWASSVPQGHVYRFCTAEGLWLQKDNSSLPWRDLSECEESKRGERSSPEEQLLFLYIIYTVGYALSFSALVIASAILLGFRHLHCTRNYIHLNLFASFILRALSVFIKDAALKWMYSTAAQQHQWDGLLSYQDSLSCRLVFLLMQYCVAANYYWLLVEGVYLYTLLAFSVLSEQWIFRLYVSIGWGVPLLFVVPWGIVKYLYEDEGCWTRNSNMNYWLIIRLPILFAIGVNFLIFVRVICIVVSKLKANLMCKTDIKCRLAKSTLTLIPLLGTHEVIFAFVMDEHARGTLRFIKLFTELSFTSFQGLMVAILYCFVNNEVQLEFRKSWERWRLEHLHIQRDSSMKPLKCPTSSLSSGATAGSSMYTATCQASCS
T1 sequence (P01275 100-127 partner limits assumed): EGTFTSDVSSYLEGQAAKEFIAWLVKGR

| Structure (SMILES) | EC50 [µM] |
| --- | --- |
| CC(C)(C)c1ccc(-c2cnc(-c3ccc(C[C@H](NC(=O)c4ccc(C(C)(C)C)s4)C(=O)NC(CN)C(=O)O)cc3)nc2)cc1 (stereo partly drawn) [Compound 366] | 2.5 to 5 |
| CSCC[C@H](NC(=O)[C@H](Cc1ccc(-c2ncc(-c3ccc(C(C)(C)C)cc3)cn2)cc1)NC(=O)c1ccc(C(C)(C)C)s1)C(=O)O [Compound 367] | 0.8 to 2.5 |
| CSCC[C@@H](NC(=O)[C@H](Cc1ccc(-c2ncc(-c3ccc(C(C)(C)C)cc3)cn2)cc1)NC(=O)c1ccc(C(C)(C)C)s1)C(=O)O [Compound 368] | < 0.8 |
| CCCCCCCOc1ccc(-c2cnc(-c3ccc(C[C@H](NC(=O)c4cnn(C(C)C)c4)C(=O)NCC(=O)O)cc3)nc2)cc1 [Compound 369] | 0.8 to 2.5 |
| CC(C)n1cc(C(=O)N[C@@H](Cc2ccc(-c3ncc(-c4ccc(C(C)(C)C)cc4)cn3)cc2)C(=O)NCC(=O)O)cn1 [Compound 370] | 0.8 to 2.5 |
| CCCCCCCOc1ccc(-c2cnc(-c3ccc(C[C@H](NC(=O)c4ncc(C(C)(C)C)s4)C(=O)NCC(=O)O)cc3)nc2)cc1 [Compound 371] | < 0.8 |
| CCCCCCCOc1ccc(-c2cnc(-c3ccc(C[C@H](NC(=O)c4cnn(C(C)(C)C)c4)C(=O)NCC(=O)O)cc3)nc2)cc1 [Compound 372] | < 0.8 |
| CC(C)(C)c1ccc(-c2cnc(-c3ccc(C[C@@H](NC(=O)c4ccc(C(C)(C)C)s4)C(=O)NCC(=O)O)cc3)nc2)cc1 [Compound 373] | 0.8 to 2.5 |
| CCCCCCCOc1ccc(-c2cnc(-c3ccc(C[C@@H](NC(=O)c4ccc(C(C)(C)C)s4)C(=O)N[C@@H](C)C(=O)O)cc3)nc2)cc1 [Compound 374] | 0.8 to 2.5 |
| CCCCCCCOc1ccc(-c2cnc(-c3ccc(C[C@@H](NC(=O)c4ccc(C(C)(C)C)s4)C(=O)N[C@H](C)C(=O)O)cc3)nc2)cc1 [Compound 375] | < 0.8 |
| CCCCCCCOc1ccc(-c2cnc(-c3ccc(C[C@@H](NC(=O)c4ccc(C(C)(C)C)s4)C(=O)NCC(=O)O)cc3)nc2)cc1 [Compound 376] | 0.8 to 2.5 |
| CCCCCCCOc1ccc(-c2cnc(-c3ccc(C[C@@H](NC(=O)c4ccc(C(C)(C)C)s4)C(=O)N[C@@H](CCC(N)=O)C(=O)O)cc3)nc2)cc1 [Compound 377] | < 0.8 |
| CCCCCCCOc1ccc(-c2cnc(-c3ccc(C[C@@H](NC(=O)c4ccc(C(C)(C)C)s4)C(=O)N[C@@H](CO)C(=O)O)cc3)nc2)cc1 [Compound 378] | < 0.8 |
| CCCCCCCOc1ccc(-c2cnc(-c3ccc(C[C@@H](NC(=O)c4ccc(C(C)(C)C)s4)C(=O)N[C@H](CO)C(=O)O)cc3)nc2)cc1 [Compound 379] | < 0.8 |
| CCCCCCCOc1ccc(-c2cnc(-c3ccc(C[C@H](NC(=O)c4ccc(C(C)(C)C)cc4)C(=O)NCC(=O)NS(C)(=O)=O)cc3)nc2)cc1 [Compound 381, (S)-4-(tert-butyl)-N-(3-(4-(5-(4-(heptyloxy)phenyl)pyrimidin-2-yl)phenyl)-1-((2-(methylsulfonamido)-2-oxoethyl)amino)-1-oxopropan-2-yl)benzamide] | 0.8 to 2.5 |
